Data published in ChEMBL document CHEMBL5465560, “Selectivity Literature for EUbOPEN Chemogenomic Library” (2024).
Each block holds one molecule with its values, some of them ahead of it.

Columns and labels:
[1] = target: T1, Dual specificity mitogen-activated protein kinase kinase 6 (Homo sapiens) (UniProt P52564); experiment: Selectivity interaction (ActivX KiNativ screen (kinase selectivity in THP-1 cell lysates)) EUB0000639a MAP2K6; type: subcellular; conditions: lysate
T1 sequence (whole entry): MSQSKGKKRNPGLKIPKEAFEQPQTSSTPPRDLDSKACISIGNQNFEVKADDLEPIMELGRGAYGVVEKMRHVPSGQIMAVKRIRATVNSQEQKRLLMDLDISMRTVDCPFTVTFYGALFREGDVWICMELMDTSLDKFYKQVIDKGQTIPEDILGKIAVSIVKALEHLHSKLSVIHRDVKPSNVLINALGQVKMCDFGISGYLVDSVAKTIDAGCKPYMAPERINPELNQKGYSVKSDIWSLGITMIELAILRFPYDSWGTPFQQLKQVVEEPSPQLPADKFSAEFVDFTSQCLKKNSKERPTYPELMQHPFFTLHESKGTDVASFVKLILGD

[2] = target: Ribosomal protein S6 kinase alpha-3 (Homo sapiens, UniProt P51812); experiment: Selectivity interaction (ActivX KiNativ screen (kinase selectivity in THP-1 cell lysates)) EUB0000639a RPS6KA3; type: subcellular; conditions: lysate, at 5 µM
Ribosomal protein S6 kinase alpha-3, sequence (P51812 whole entry): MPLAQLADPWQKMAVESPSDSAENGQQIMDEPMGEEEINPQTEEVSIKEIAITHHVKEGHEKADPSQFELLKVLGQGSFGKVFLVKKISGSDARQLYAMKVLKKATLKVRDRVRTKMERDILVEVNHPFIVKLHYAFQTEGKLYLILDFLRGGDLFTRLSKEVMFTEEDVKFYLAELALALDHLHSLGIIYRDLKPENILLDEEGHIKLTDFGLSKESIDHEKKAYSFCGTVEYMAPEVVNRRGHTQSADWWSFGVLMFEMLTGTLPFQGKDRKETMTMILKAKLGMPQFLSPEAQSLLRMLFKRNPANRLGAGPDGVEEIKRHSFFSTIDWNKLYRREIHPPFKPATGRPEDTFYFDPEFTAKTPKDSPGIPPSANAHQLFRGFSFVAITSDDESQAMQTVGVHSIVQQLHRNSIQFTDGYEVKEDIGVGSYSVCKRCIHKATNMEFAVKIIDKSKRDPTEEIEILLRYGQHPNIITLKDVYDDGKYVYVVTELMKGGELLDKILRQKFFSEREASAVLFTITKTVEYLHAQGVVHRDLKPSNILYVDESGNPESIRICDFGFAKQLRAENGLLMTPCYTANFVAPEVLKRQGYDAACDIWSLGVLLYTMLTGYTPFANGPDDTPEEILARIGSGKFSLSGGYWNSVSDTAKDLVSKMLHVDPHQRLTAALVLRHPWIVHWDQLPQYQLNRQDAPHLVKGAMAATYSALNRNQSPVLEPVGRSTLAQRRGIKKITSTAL

[3] = target: T2, Serine/threonine-protein kinase RIO3 (Homo sapiens) (UniProt O14730); experiment: Selectivity interaction (KinomeScan (DiscoverX)) EUB0001079a RIOK3; conditions: at 1 µM
T2 sequence (whole entry): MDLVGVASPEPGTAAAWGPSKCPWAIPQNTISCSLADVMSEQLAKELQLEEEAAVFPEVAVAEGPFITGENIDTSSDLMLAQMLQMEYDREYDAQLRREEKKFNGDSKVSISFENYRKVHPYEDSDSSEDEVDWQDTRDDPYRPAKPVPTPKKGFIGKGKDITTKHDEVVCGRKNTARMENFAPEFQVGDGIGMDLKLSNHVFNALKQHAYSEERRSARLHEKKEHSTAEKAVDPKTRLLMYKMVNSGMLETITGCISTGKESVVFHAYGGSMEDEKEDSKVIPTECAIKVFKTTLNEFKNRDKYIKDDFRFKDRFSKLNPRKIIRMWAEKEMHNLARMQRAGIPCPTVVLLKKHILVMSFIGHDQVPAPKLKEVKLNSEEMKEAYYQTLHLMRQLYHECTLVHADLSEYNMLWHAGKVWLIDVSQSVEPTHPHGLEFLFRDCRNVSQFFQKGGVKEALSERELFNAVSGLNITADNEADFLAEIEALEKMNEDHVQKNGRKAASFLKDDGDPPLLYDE

[4] = target: Mitogen-activated protein kinase kinase kinase 14 (Homo sapiens) (UniProt Q99558); experiment: Selectivity interaction (ProQinase) EUB0000171b MAP3K14
Mitogen-activated protein kinase kinase kinase 14 (Homo sapiens), sequence (Q99558 whole entry, looked up): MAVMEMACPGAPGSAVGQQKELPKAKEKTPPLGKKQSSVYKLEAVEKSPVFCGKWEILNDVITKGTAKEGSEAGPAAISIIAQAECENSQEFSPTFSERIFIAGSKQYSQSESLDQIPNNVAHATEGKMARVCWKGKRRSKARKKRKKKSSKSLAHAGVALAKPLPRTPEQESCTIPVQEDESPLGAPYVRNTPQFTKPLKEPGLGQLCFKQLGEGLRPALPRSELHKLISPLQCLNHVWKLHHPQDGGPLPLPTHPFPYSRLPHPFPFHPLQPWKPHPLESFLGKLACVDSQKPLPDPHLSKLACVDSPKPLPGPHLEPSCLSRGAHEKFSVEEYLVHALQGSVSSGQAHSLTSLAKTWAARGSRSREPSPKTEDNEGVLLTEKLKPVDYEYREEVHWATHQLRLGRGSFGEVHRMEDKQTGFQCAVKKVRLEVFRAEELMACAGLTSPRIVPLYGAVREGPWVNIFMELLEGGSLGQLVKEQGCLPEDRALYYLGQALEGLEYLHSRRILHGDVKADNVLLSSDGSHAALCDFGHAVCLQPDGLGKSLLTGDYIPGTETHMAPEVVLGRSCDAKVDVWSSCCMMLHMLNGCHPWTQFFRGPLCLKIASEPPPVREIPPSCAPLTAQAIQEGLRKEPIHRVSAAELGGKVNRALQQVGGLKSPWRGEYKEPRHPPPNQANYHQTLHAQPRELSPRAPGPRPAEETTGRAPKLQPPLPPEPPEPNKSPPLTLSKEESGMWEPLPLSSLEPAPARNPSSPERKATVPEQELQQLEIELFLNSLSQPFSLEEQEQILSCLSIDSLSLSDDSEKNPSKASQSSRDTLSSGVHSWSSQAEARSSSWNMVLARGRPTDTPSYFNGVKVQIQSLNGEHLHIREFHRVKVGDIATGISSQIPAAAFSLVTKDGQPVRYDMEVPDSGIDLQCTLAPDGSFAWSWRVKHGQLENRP

[5] = target: T3, Protein kinase C epsilon type (Homo sapiens) (UniProt Q02156); experiment: Selectivity interaction (KinomeScan (DiscoverX)) EUB0001619a PRKCE; conditions: at 1 µM
T3 sequence (whole entry): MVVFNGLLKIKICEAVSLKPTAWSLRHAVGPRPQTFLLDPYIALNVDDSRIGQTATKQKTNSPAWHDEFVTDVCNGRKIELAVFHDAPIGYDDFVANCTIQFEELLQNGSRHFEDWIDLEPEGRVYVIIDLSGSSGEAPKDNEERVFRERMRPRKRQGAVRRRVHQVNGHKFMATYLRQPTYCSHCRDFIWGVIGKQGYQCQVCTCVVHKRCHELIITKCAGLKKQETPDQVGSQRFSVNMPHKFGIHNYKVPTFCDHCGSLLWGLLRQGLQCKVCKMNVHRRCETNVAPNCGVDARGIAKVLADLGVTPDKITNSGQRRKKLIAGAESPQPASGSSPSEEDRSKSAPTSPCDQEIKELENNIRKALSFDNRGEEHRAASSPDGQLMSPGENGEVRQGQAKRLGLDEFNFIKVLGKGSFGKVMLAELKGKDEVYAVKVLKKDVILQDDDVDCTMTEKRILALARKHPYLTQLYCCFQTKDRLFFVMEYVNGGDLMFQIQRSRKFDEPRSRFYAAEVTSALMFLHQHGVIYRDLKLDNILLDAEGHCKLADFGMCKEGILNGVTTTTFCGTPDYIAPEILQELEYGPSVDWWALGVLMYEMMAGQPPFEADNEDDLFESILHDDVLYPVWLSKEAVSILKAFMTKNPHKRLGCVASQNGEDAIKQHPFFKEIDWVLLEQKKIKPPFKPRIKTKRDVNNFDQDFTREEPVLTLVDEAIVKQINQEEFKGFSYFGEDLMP

[6] = target: Protein-tyrosine kinase 2-beta (Homo sapiens) (UniProt Q14289); experiment: Selectivity interaction (SelectScreen profiling (Invitrogen)) EUB0000607a PTK2B; conditions: at 2 µM
Protein-tyrosine kinase 2-beta (Homo sapiens), sequence (Q14289 whole entry, looked up): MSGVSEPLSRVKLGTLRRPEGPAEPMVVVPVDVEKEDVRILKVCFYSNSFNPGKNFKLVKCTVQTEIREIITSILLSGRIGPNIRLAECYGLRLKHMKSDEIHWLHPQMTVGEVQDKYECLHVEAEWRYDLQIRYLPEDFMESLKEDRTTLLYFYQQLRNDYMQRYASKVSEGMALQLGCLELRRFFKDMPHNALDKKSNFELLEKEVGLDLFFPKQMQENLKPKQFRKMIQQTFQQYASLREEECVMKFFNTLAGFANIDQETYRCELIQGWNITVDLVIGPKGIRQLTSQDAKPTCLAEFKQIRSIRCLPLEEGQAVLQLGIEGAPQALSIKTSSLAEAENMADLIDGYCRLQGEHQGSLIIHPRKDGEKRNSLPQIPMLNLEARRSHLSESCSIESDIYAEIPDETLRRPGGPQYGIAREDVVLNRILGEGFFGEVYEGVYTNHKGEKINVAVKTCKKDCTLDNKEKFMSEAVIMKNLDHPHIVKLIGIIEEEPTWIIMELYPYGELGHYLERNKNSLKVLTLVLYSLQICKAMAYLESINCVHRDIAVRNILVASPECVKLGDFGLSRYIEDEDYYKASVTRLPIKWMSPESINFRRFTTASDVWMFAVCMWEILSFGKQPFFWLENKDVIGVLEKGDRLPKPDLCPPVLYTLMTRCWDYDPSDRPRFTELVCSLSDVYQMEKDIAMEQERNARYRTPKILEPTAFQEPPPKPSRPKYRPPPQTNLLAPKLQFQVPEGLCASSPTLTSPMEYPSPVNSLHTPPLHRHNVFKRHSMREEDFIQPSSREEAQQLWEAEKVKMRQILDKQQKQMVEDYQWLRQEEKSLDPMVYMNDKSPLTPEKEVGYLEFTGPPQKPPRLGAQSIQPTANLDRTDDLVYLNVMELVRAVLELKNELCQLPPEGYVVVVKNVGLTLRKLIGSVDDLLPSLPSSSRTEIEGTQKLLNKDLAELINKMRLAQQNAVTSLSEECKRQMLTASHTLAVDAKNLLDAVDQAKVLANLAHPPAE

- % of inhibition ([1]; at 0.01 µM): 10.3%
- % of inhibition ([1]; at 0.04 µM): -4.9%
- % of inhibition ([1]; at 0.2 µM): -20.6%
- % of inhibition ([1]; at 1 µM): 17.5%
- % of inhibition ([1]; at 5 µM): 62.3%
- % of inhibition [2]: -3%
Structure (SMILES): CC[C@@H]1[C@H](F)C(=O)N[C@@H]1COc1nccc2cc(C(N)=O)c(OC)cc12 [ZIMLOVISERTIB]

Structure (SMILES): Nc1cnc(N2CCc3cc(S(=O)(=O)Nc4c(F)cc(Cl)cc4F)cc(N4CCCC4=O)c32)nc1 [TP-020n]
- % of control [3]: 100%

- % of control ([4]; at 1 µM): 91%
- % of control ([4]; at 5 µM): 87%
Structure (SMILES): C=CC(=O)Nc1cccc(C(=O)Nc2ccc(Nc3cc(-c4[nH]c(SC)nc4C)ccn3)cc2)c1

Structure (SMILES): N#Cc1cccc(-c2c[nH]c3ncnc(N4CCOCC4)c23)c1
- % of control [5]: 12%

Structure (SMILES): CNC(=O)Nc1ccc(-c2nc(N3CC4CCC(C3)O4)c3cnn(C4CCC5(CC4)OCCO5)c3n2)cc1
- % of inhibition [6]: -3%
